The target in assay [1] is human JAK1 (a.a. 837-1142) (Homo sapiens, UniProt P23458). Description: In vitro JAK kinase assay (HTRF), JAK1. It is filed as biochemical. Particulars: 1 mM ATP. (In general: In TR-FRET formats the signal depends on donor and acceptor labels being close together.)
Method: (§1) The catalytic activity of JAK1, JAK2 or JAK3 are assayed by measuring the phosphorylation of a biotinylated peptide. The phosphorylated peptide was detected by homogenous time resolved fluorescence (HTRF). […] Reactions are carried out at room temperature for 1 hour and then stopped with 20 μL 45 mM EDTA, 300 nM SA-APC, 6 nM Eu-Py20 in assay buffer (Perkin Elmer, Boston, MA). Binding to the Europium labeled antibody takes place for 40 minutes and HTRF signal was measured on a Fusion plate reader (Perkin Elmer, Boston, MA).
For assay [2], the target named is human JAK2 (a.a. 828-1132) (Homo sapiens (Human), UniProt O60674). The assay is described as follows: In vitro JAK kinase assay (HTRF), JAK2. The class given is biochemical. Particulars: JAK2/JAK1 IC50 ratio at 1 mM ATP.
Chain of human JAK2 (a.a. 828-1132) (O60674 828-1132): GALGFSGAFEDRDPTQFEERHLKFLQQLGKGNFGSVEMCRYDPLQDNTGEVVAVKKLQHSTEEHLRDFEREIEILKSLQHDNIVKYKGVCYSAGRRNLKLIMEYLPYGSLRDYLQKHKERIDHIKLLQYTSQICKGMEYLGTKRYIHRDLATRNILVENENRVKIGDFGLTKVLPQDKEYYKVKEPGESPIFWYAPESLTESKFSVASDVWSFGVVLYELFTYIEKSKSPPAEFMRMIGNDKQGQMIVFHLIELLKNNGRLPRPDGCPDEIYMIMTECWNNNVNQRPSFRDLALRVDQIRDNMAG
Method: as §1
A further assay has as its system IL-31. The following applies: cited from earlier work.
The test system of a further assay is PN lesional skin. The following applies: PN skin cultured with nemolizumab; cited from earlier work.

Results on two molecules are retold here after US12268667B2, “JAK1 pathway inhibitors for the treatment of prurigo nodularis” (Incyte Corporation, priority 2021, dated 2025).

By IC50 is commonly meant the midpoint of a concentration-inhibition curve.

In turn, `C[C@H](O)CNCc1cc(OC2CCN([C@H]3C[C@](CC#N)(n4cc(-c5ncnc6[nH]ccc56)cn4)C3)CC2)nc(C(F)(F)F)c1` [Compound 25, {trans-3-(4-{[4-({[(2S)-2-hydroxypropyl]amino}methyl)-6-(trifluoromethyl)pyridin-2-yl]oxy}piperidin-1-yl)-1-[4-(7H-pyrrolo[2,3-d]pyrimidin-4-yl)-1H-pyrazol-1-yl]cyclobutyl}acetonitrile] gave an IC50 in assay [1] of under 10 nM. For the same molecule, the JAK2/JAK1 in assay [2] is over 10.

B1: nemolizumab (antibody, chains of the INN, looked up)
heavy: QVQLVQSGAEVKKPGASVKVSCKASGYTFTGYIMNWVRQAPGQGLEWMGLINPYNGGTDYNPQFQDRVTITADKSTSTAYMELSSLRSEDTAVYYCARDGYDDGPYTLETWGQGTLVTVSSASTKGPSVFPLAPSSKSTSGGTAALGCLVKDYFPEPVTVSWNSGALTSGVHTFPAVLQSSGLYSLSSVVTVPSSNFGTQTYTCNVDHKPSNTKVDKTVERKSCVECPPCPAPPVAGPSVFLFPPKPKDTLMISRTPEVTCVVVDVSQEDPEVQFNWYVDGVEVHNAKTKPREEQFNSTFRVVSVLTVVHQDWLNGKEYKCKVSNKGLPAPIEKTISKTKGQPREPQVYTLPPSQEEMTKNQVSLTCLVKGFYPSDIAVEWESNGQPENNYKTTPPMLDSDGSFFLYSKLTVDKSRWQEGNVFSCSVMHEALHNHYTQKSLSLSP
light: DIQMTQSPSSLSASVGDRVTITCQASEDIYSFVAWYQQKPGKAPKLLIYNAQTEAQGVPSRFSGSGSGTDFTLTISSLQPEDFATYYCQHHYDSPLTFGGGTKVEIKRTVAAPSVFIFPPSDEQLKSGTASVVCLLNNFYPREAKVQWKVDNALQSGNSQESVTEQDSKDSTYSLSSTLTLSKADYEKHKVYACEVTHQGLSSPVTKSFNRGEC
Consider B1, for which the “effect on pruritus and skin lesions in PN patients” value in the assay with IL-31 is “improvement in pruritus and skin lesions”. The “IL-17 levels in lesional skin” value with PN lesional skin is given as “reduction in IL-17 levels”.
